Data reported in PubChem BioAssay (NCI).
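All cell lines were grown in 96-well plates and treated with compound for 48 hours. The concentration for full growth arrest is given as TGI.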

How the values were obtained:
Experiment in all cases: growth of human tumour cells (NCI), 48 h
[1] = tested on: MCF7 breast
[2] = tested on: A549 NSCLC
[3] = tested on: HCC-2998 colon
[4] = tested on: UACC-62 melanoma
[5] = tested on: MDA-MB-435
[6] = tested on: OVCAR-4 ovarian
[7] = tested on: SN12C renal
[8] = tested on: SNB-19 CNS
[9] = tested on: IGROV1 ovarian
[10] = tested on: HOP-92 NSCLC

SMILES | TGI [1] | TGI [2] | TGI [3] | TGI [4] | TGI [5] | TGI [6] | TGI [7] | TGI [8] | TGI [9] | TGI [10]
C/C(O)=C(\C=N\C(N)=S)C(=O)Nc1ccccc1C | > 100 µM | > 100 µM | > 100 µM | > 100 µM | > 100 µM | > 100 µM | > 100 µM | > 100 µM | > 100 µM | > 100 µM
COC(=O)c1sc(=S)sc1SCc1ccccc1CSc1sc(=S)sc1C(=O)OC | > 100 µM | > 100 µM | > 100 µM | > 100 µM | > 100 µM | > 100 µM | > 100 µM | > 100 µM | > 100 µM | > 100 µM
CNC(=O)CCC(NC(C)=O)C(=O)NC(Cc1ccc(NC(=O)CCCCC(C)=O)cc1)C(=O)NC(CCC(=O)NC)C(=O)NC (stereo not given) | > 100 µM | > 100 µM | > 100 µM | > 100 µM | > 100 µM | > 100 µM | > 100 µM | > 100 µM | > 100 µM | > 100 µM
C/C(=C/CO[Si](C)(C)C(C)(C)C)C(=O)N(C)c1ccccc1I | 30.6 µM | 32.4 µM | 28.3 µM | 28 µM | 33.7 µM | 31.2 µM | 31.1 µM | 30.6 µM | 29.9 µM | 22.5 µM
CCOC(=O)c1cc2c(OC(C)=O)ccc(OC(C)=O)c2s1 | 11.8 µM | 28.6 µM | 22.2 µM | 4.08 µM | 7.38 µM | 31.3 µM | 5.11 µM | 19.9 µM | 6.52 µM | 3.16 µM
Clc1nc(-[n+]2ccc(-c3ccncc3)cc2)nc(Nc2ccccc2)c1Cl | > 100 µM | > 100 µM | > 100 µM | > 100 µM | > 100 µM | > 100 µM | > 100 µM | > 100 µM | > 100 µM | > 100 µM
